Legend:
[1] = tested on: strains which belong to the group Proteus; test: Example of a gelled medium with O-toluene-sulfonyl-L-tyrosine and iron citrate; format: cell-based; conditions: 0.5 g/l with iron citrate at 0.5 g/l in gelled medium; after 18 to 24 hours of incubation
Description: As an example of a gelled medium, O-toluene-sulfonyl-L-tyrosine at 0.5 g/l and iron citrate at 0.5 g/l can be incorporated into the culture medium, in the following medium:
this medium being able to be inoculated with various Gram-negative or Gram-positive microorganisms.

[2] = tested on: bacteria belonging to the group Proteus; test: Differentiation of the group Proteus from other bacteria in liquid medium (Example 7); format: cell-based; conditions: after 48 hours
Method: Two media were prepared according to the usual techniques. […] The composition of the Media III and IV for one liter of final medium is as follows: [table] The pH of the media was adjusted to approximately 7.2. In Medium III, the detection agent for the enzymatic activity such as deaminase activity which was used is the natural amino acid L-histidine, at 1.5 g/l; in Medium IV, the detection agent for the enzymatic activity such as deaminase activity which is used is of [sic] N-toluene-sulfonyl-L-histidine, at 0.5 g/l. The media were distributed into test tubes, in a sterile manner. These two media were inoculated with the 12 bacterial strains described in Example 6. The tubes were incubated for 48 hours at 37° C., and were examined visually after 48 hours according to the following interpretation: the browning of the tube reflects the presence of an enzymatic activity such as deaminase activity, and thus of a bacterium of the group Proteus, the absence of browning signifies the absence of bacteria of the group Proteus.

SMILES | colour of colonies of strains of the group Proteus [1] | differentiation of bacteria of the group Proteus from those not belonging thereto [2]
Cc1ccc(S(=O)(=O)Oc2ccc(C[C@H](N)C(=O)O)cc2)cc1 [Example 2, 4-O-tosyl-L-tyrosine] | brown colonies | –
N[C@@H](Cc1c[nH]cn1)C(=O)O [L-histidine] | – | high sensitivity and specificity

Source: patent US6733986B1, “Method and agent for determining a deaminase enzymatic activity” (Bio Merieux, priority 1997, dated 2004)
